Results: patent publication US8951507B2, “Formulation with irritation reducing action comprising bisabolol and [6]-paradol” (Symrise AG, priority 2009, dated 2015)
“Also recorded” adds a separate entry of the source. Read-outs that look alike come from different tables or passages of the source.

Key:
[1] = test system: PGE2 release of human skin cells (keratinocytes); assay: Anti-Prostaglandin E2 (PGE2) assay, A23187-induced PGE2 release, ELISA; format: cell-based; settings: for Maximum PGE2 inhibition: at optimum concentration, versus A23187-stimulated control; for Optimum: concentration giving maximum PGE2 inhibition; for IC50: primary human epidermal keratinocytes, 2 μM A23187 calcium ionophore, at least two independent experiments, read-out: IC50 (50% of PGE2 release is inhibited)
Procedure: PGE2 is an important inflammatory mediator in the skin. Thus, the inhibiting effect of [6]-paradol and related compounds on (A23187-induced) PGE2 release of human skin cells (keratinocytes) is investigated.
Primary human epidermal keratinocytes are seeded into a 96 well microplate and are cultured in KGM medium to 60-80% confluency. Afterwards, the KGM medium is substituted by KGM medium depleted of hydrocortisone but containing the test compounds (test compound solutions are applied in medium in three different concentrations, each as a triple determination in three different wells, e.g. for [6]-paradol: in experiment 1 the following concentrations were used: 20 μM, 2 μM and 0.2 μM, in experiment 2 the following concentrations were used: 10 μM, 1 μM and 0.1 μM and in experiment 3 the following concentrations were used: 2.5 μM, 0.25 μM and 0.025 μM.
The cells are incubated for 30 minutes. Then, PGE2 release is stimulated by addition of 2 μM A23187 calcium ionophore. After further 30 min incubation, the PGE2 content of the supernatant is quantified in an ELISA (PGE2 Enzyme Immunoassay System from GE Healthcare).
The results set out above were obtained from at least two independent experiments. PGE2 inhibition was calculated in comparison to the calcium ionophore A23187-induced stimulated control (without addition of test compounds).

[2] = literature reports; cited from earlier work
[3] = Stability in cosmetic compositions or products at varying pH (own experiments); format: physicochemical; settings: basic, neutral or acidic cosmetic compositions or products
Text: Furthermore, in contrast to gingerols and shogaols, in particular to gingerols, which are labile and prone to degradation (J. Pharm. Sci. 2001, 1658-1664), thus showing insufficient stability, according to own experiments [6]-paradol is very stable in cosmetic compositions or products, even at varying pH-values, i.e. in basic, neutral or acidic cosmetic compositions or products.
The synergistic combinations of bisabolol and [6]-paradol, i.e. the formulations according to the present invention, are preferably colourless, are advantageously of low odour and show good stability even at pH values […], which is of particular interest for several cosmetic products such as sunscreen formulations, soaps, deo sticks, alkaline hair colourations and oral care formulations like tooth pastes. The synergistic combinations of bisabolol and [6]-paradol are advantageously stable over a wide range of pH-values, generally in cosmetic compositions or products having a pH-value in the range of 4 to 10, in particular in cosmetic compositions or products having a pH-value in the range of 5 to 9.

Row | IC50 [1] [nM] | IC50 ([1]; Keratinocyte) [nM] | Stability in cosmetic compositions or products [3] | Structure (SMILES) | Maximum PGE2 inhibition [1] | Optimum [1] [µM] | Mutagenicity [2] | PGE2 inhibitory activity compared with the other tested compounds ([1]; among [6]-paradol, [6]-gingerol, [8]-gingerol and [8]-paradol)
1 | 3470 ± 4080 |  |  | CCCCC[C@H](O)CC(=O)CCc1ccc(O)c(OC)c1 [[6]-Gingerol] | ~30% | 5 | potent mutagen | 
2 |  | 130 | very stable | CCCCCCCC(=O)CCc1ccc(O)c(OC)c1 [[6]-Paradol, 1-(4-hydroxy-3-methoxyphenyl)-decan-3-one] | 90-100% | 5 | not mutagenic | most active; also recorded: highest activity
3 | 1480 ± 1210 |  |  | CCCCCCCCCC(=O)CCc1ccc(O)c(OC)c1 [[8]-Paradol] | 80-100% | 10 |  | 
4 | 1420 ± 670 |  |  | CCCCCCC[C@H](O)CC(=O)CCc1ccc(O)c(OC)c1 [[8]-Gingerol] | ~70% | 20 |  | 
